Laboratory results taken from US10842892B2, “Methods and apparatus for synthesizing imaging agents, and intermediates thereof” (Lantheus Medical Imaging, Inc., priority 2010, dated 2020).

Key:
normal subjects = experiment: human safety, dosimetry, biodistribution and rest-stress myocardial imaging in normal subjects; format: in vivo
Method: 25 normal subjects were enrolled in 2 studies: 13 received 222 MBq I.V. At rest (R) only and 12 more subjects received 94 MBq at R and, on a second day, 124 MBq at peak adenosine stress (Adeno, n=6) or at peak treadmill exercise (Ex, n=6). Physical exam, laboratory, vital signs, ECG, and EEG were monitored pre- and post-injection. Myocardial (Myo), liver, blood pool and lung Standardized Uptake Values (SUV) were determined from sequential PET images over time. Mean dose for various organs and mean effective dose (ED in mSv/MBq) were estimated.

myocardial blood flow = details: humans, assumed, equivalent to prior studies; cited from earlier work
heart wall = details: primate-derived estimates; cited from earlier work

CC(C)(C)n1ncc(OCc2ccc(COCC[18F])cc2)c(Cl)c1=O [imaging agent 1, 2-t-butyl-4-chloro-5-[4-(2-(^18F)fluoroethoxymethyl)-benzyloxy]-2H-pyridazin-3-1]
adverse events (normal subjects; 25 normal subjects): no adverse events related to the tracer
Adeno Myo SUV (normal subjects; 10 mins): 10.5 ± 1.5
Adeno Myo/liver (normal subjects; 10 mins): 1.9 ± 0.6
Exercise Myo SUV (normal subjects; 10 mins): 6.2 ± 2.1
Exercise Myo/liver (normal subjects; 10 mins): 28.0 ± 33.6
Rest Myo SUV (normal subjects; 10 mins): 3.9 ± 0.9
Rest Myo/liver (normal subjects; 10 mins): 1.0 ± 0.3
Adeno Myo SUV (normal subjects; 30 mins): 10.8 ± 2.1
Adeno Myo/liver (normal subjects; 30 mins): 2.0 ± 0.5
Exercise Myo SUV (normal subjects; 30 mins): 5.5 ± 1.0
Exercise Myo/liver (normal subjects; 30 mins): 5.6 ± 1.0
Rest Myo SUV (normal subjects; 30 mins): 4.2 ± 1.1
Rest Myo/liver (normal subjects; 30 mins): 0.9 ± 0.2
Adeno Myo SUV (normal subjects; 60 mins): 10.3 ± 2.1
Adeno Myo/liver (normal subjects; 60 mins): 2.2 ± 0.5
Exercise Myo SUV (normal subjects; 60 mins): 5.1 ± 0.9
Exercise Myo/liver (normal subjects; 60 mins): 5.6 ± 1.3
Rest Myo SUV (normal subjects; 60 mins): 4.5 ± 1.2
Rest Myo/liver (normal subjects; 60 mins): 1.1 ± 0.2
Adeno Myo SUV (normal subjects; 90 mins): 9.6 ± 2.1
Adeno Myo/liver (normal subjects; 90 mins): 2.6 ± 0.5
Exercise Myo SUV (normal subjects; 90 mins): 4.9 ± 0.9
Exercise Myo/liver (normal subjects; 90 mins): 5.8 ± 1.5
Rest Myo SUV (normal subjects; 90 mins): 4.3 ± 1.3
Rest Myo/liver (normal subjects; 90 mins): 1.4 ± 0.2
Adeno Myo SUV (normal subjects; 149 mins): 8.4 ± 2.1
Adeno Myo/liver (normal subjects; 149 mins): 3.8 ± 1.0
Exercise Myo SUV (normal subjects; 149 mins): 4.5 ± 0.8
Exercise Myo/liver (normal subjects; 149 mins): 5.5 ± 1.5
Rest Myo SUV (normal subjects; 149 mins): 4.1 ± 1.4
Rest Myo/liver (normal subjects; 149 mins): 2.1 ± 0.3
mean effective dose (ED) (normal subjects; at rest (R)): 0.019 mSv/MBq
mean effective dose (ED) (normal subjects; with adenosine stress (Adeno)): 0.019 mSv/MBq
mean effective dose (ED) (normal subjects; with exercise (Ex)): 0.015 mSv/MBq
first pass extraction fraction (myocardial blood flow): 0.94
estimated human radiation dose for the heart wall (heart wall): 0.067 mSv/MBq
